Measurements published in ChEMBL document CHEMBL5291721, “A preclinical secondary pharmacology resource illuminates target-adverse drug reaction associations of marketed drugs” (Nat Commun, 2023).

What was measured:
[1] = target: T1, Adenosine receptor A3 (Homo sapiens, UniProt P0DMS8)
T1 sequence (P0DMS8 whole entry): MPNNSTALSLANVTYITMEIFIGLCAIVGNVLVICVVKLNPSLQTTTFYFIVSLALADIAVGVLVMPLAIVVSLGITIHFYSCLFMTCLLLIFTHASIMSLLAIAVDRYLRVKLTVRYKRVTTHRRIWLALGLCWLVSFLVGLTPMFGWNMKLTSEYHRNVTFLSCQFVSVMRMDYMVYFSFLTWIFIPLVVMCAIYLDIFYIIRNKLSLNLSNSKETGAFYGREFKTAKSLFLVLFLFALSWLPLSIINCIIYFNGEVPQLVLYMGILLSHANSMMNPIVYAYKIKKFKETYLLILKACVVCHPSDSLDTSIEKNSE

[2] = target: Vascular endothelial growth factor receptor 2 (Homo sapiens, UniProt P35968); type: functional
Vascular endothelial growth factor receptor 2, sequence (P35968 whole entry): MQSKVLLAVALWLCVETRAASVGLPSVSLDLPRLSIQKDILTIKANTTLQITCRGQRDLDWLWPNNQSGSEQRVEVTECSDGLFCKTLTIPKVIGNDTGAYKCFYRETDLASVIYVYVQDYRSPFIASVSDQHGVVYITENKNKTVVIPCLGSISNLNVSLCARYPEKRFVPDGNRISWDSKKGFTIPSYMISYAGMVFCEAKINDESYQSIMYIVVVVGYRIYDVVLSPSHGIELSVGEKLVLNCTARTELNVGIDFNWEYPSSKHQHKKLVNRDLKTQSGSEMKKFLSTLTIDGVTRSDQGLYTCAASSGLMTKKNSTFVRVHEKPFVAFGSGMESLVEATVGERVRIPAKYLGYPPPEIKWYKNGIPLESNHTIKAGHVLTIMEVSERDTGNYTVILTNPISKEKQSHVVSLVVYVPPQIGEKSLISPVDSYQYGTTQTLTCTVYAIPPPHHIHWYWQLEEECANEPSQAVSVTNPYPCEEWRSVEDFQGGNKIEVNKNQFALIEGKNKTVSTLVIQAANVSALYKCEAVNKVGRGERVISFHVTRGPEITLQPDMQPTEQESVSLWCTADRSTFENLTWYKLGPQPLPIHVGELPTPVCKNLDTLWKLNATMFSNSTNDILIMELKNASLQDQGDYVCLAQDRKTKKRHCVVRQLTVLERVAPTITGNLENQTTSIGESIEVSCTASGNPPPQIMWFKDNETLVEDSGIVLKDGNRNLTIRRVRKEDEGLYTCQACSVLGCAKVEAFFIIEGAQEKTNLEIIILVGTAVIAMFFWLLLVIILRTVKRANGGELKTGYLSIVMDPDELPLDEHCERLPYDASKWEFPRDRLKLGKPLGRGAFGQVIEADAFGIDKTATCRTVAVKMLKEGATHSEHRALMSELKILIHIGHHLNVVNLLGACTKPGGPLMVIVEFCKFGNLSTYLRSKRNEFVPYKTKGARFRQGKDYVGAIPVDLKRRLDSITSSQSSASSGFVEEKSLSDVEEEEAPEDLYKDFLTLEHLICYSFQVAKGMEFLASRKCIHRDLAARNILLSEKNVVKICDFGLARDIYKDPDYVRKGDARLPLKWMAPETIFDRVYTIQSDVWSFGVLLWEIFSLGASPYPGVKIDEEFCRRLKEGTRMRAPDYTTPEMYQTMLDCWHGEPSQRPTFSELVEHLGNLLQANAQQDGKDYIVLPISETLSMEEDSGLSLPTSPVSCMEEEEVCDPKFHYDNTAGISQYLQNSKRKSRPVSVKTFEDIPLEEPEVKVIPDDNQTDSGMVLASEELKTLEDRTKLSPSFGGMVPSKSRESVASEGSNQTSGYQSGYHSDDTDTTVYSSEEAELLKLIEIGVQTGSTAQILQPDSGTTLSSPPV

[3] = target: T2, Endothelin-1 receptor (Homo sapiens, UniProt P25101)
T2 sequence (P25101 whole entry): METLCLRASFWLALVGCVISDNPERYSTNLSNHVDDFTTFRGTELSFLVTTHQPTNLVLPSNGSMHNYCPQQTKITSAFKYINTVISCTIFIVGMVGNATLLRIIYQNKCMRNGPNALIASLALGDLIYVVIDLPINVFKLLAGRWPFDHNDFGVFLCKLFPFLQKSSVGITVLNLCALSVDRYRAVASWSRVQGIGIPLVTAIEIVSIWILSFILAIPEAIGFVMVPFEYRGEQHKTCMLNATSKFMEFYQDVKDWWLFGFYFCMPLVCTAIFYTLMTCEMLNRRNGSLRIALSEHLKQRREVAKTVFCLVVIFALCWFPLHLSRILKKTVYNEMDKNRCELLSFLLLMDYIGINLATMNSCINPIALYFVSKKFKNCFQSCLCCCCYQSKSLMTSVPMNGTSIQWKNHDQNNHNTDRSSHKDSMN

[4] = target: Vasopressin V1a receptor (Homo sapiens, UniProt P37288)
Vasopressin V1a receptor, sequence (P37288 whole entry): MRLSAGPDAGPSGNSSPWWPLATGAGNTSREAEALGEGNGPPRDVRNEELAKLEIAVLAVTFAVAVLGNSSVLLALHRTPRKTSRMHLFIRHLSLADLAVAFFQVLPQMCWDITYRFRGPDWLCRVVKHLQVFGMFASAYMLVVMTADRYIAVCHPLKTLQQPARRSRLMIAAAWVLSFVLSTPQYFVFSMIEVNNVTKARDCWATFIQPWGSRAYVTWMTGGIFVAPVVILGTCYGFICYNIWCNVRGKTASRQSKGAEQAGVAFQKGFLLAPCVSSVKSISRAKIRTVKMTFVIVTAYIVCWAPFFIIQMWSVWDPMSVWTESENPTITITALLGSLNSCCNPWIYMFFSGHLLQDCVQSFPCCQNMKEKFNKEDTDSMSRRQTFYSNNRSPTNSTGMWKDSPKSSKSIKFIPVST

[5] = target: T3, Equilibrative nucleoside transporter 1 (Homo sapiens, UniProt Q99808)
T3 sequence (Q99808 whole entry): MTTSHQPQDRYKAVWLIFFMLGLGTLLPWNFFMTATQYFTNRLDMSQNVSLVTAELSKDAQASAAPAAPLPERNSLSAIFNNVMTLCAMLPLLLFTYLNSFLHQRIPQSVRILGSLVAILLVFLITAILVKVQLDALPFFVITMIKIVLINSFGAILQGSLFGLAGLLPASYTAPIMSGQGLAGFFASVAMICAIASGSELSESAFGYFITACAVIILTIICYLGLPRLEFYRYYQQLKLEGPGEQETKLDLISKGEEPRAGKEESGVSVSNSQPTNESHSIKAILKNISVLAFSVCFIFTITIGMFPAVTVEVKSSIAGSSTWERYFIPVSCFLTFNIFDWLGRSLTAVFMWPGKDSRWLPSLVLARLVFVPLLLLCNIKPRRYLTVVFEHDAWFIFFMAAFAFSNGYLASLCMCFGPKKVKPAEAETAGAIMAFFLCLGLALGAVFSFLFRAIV

[6] = target: cGMP-inhibited 3',5'-cyclic phosphodiesterase 3A (Homo sapiens, UniProt Q14432); type: functional
cGMP-inhibited 3',5'-cyclic phosphodiesterase 3A, sequence (Q14432 whole entry): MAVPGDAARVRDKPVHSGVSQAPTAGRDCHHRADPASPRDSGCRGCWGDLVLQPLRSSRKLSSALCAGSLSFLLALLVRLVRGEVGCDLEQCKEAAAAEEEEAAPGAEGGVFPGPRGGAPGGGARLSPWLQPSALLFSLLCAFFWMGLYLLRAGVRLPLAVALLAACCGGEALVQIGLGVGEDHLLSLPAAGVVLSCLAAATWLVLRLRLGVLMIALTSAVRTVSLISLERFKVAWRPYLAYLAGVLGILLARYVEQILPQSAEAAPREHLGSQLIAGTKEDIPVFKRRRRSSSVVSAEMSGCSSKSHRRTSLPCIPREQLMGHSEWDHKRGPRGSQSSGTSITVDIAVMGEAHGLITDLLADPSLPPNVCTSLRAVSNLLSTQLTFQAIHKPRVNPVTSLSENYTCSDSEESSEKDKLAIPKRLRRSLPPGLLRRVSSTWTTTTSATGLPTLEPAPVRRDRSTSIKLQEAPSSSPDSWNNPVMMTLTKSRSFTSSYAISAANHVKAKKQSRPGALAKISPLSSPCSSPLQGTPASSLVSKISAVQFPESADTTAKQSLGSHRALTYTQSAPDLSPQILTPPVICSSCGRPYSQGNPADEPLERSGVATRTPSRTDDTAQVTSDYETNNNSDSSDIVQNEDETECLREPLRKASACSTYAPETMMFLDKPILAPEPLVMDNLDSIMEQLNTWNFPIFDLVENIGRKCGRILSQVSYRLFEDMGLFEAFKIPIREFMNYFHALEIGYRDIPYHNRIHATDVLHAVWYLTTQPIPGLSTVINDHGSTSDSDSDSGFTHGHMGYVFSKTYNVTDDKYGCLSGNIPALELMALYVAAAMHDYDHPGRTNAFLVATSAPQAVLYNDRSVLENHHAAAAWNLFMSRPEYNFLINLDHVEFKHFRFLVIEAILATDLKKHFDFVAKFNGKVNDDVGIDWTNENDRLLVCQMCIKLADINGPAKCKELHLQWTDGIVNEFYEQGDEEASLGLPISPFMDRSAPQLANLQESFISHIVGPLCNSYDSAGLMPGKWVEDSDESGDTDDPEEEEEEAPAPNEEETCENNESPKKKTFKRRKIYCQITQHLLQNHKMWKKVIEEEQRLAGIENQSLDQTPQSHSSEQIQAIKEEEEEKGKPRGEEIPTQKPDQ

[7] = target: 5-hydroxytryptamine receptor 2B (Homo sapiens, UniProt P41595); type: functional, cell-based
5-hydroxytryptamine receptor 2B, sequence (P41595 whole entry): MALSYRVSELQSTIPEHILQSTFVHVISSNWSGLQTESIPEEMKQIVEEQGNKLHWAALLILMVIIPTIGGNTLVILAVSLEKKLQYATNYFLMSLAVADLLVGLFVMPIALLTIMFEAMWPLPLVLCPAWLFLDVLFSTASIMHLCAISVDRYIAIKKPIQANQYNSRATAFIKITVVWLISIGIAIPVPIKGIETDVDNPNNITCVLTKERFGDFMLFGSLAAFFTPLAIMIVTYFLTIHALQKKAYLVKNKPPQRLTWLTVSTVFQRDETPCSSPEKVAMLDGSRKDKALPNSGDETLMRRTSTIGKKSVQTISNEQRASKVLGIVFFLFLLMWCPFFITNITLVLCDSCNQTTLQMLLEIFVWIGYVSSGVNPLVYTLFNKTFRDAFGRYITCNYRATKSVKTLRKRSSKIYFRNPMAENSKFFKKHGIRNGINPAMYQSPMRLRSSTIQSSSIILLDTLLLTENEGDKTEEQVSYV

[8] = target: T4, Alpha-2A adrenergic receptor (Homo sapiens, UniProt P08913); type: functional, cell-based
T4 sequence (P08913 whole entry): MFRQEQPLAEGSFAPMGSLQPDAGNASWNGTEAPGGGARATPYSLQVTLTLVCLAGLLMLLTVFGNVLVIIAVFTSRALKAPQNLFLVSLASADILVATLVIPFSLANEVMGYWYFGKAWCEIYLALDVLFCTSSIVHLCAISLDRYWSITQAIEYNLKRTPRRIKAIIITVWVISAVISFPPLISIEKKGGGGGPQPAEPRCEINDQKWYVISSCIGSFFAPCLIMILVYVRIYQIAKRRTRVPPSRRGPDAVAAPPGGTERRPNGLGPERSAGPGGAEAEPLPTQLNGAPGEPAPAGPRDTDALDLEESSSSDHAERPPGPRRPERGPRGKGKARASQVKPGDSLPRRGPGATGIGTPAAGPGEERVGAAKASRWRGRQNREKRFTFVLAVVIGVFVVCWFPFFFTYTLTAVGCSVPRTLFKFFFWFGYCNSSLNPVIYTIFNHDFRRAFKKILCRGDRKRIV

[9] = target: 3',5'-cyclic-AMP phosphodiesterase 4D (Homo sapiens, UniProt Q08499); type: functional
3',5'-cyclic-AMP phosphodiesterase 4D, sequence (Q08499 whole entry): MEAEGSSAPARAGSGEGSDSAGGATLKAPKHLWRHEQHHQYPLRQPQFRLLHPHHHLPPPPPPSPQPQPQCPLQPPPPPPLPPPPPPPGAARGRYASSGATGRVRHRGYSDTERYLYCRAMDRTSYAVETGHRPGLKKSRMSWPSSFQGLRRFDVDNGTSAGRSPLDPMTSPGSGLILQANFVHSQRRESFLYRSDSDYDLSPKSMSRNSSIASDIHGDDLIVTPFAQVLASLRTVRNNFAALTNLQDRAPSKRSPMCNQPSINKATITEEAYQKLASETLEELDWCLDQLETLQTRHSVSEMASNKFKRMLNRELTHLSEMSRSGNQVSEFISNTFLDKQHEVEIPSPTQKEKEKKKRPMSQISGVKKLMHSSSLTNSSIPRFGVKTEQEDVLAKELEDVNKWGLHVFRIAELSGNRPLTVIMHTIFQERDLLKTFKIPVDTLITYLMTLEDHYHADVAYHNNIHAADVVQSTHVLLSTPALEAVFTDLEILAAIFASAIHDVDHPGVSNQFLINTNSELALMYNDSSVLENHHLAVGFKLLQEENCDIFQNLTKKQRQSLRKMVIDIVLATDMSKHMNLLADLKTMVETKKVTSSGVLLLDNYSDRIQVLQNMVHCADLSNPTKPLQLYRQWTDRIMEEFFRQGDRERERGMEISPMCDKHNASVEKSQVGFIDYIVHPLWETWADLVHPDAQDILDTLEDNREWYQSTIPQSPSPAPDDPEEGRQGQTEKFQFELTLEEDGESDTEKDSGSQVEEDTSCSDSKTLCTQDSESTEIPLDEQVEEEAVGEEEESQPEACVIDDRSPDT

[10] = target: Beta-2 adrenergic receptor (Homo sapiens, UniProt P07550); type: functional, cell-based
Beta-2 adrenergic receptor, sequence (P07550 whole entry): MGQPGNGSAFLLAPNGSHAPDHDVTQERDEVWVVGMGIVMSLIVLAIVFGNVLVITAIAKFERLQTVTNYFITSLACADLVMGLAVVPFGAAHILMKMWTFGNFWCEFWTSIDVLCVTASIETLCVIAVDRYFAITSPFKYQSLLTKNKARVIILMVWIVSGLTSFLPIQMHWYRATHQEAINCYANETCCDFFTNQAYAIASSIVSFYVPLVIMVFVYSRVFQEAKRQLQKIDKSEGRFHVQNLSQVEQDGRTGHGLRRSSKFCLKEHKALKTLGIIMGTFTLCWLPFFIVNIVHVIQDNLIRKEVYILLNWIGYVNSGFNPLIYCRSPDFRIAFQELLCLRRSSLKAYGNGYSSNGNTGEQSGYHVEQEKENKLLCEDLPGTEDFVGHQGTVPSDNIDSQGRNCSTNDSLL
Also: assay procedure not described here.

| SMILES | AC50 [1] | AC50 [2] | AC50 [3] | AC50 [4] | AC50 [5] | AC50 [6] | AC50 [7] | AC50 [8] | AC50 [9] | AC50 [10] |
| --- | --- | --- | --- | --- | --- | --- | --- | --- | --- | --- |
| CC(=O)NCCCCCC(=O)O [ACEXAMIC ACID] | > 30 µM | > 30 µM | – | – | – | – | – | – | – | – |
| CC(=O)Nc1ccc(CC(=O)O)cc1 [ACTARIT] | – | – | > 30 µM | > 30 µM | > 30 µM | > 30 µM | > 30 µM | > 30 µM | > 30 µM | – |
| CC(C(=O)O)c1ccc2oc(-c3ccc(Cl)cc3)nc2c1 (centres undefined) [BENOXAPROFEN] | – | – | > 30 µM | – | > 30 µM | > 30 µM | > 30 µM | > 30 µM | > 30 µM | – |
| O=C(O)c1ccccc1 [BENZOIC ACID] | > 30 µM | > 30 µM | – | – | – | – | – | – | – | – |
| CC=CC1=C(C(=O)O)N2C(=O)[C@@H](NC(=O)[C@H](N)c3ccc(O)cc3)[C@H]2SC1 [CEFPROZIL] | – | – | – | > 30 µM | > 30 µM | > 30 µM | > 30 µM | > 30 µM | > 30 µM | – |
| Cc1cc(C2CCCCC2)n(O)c(=O)c1 [CICLOPIROX] | > 30 µM | > 30 µM | – | – | – | > 30 µM | – | – | > 30 µM | – |
| Clc1ccc(Cn2c(CN3CCCC3)nc3ccccc32)cc1 [CLEMIZOLE] | – | – | > 30 µM | > 30 µM | > 30 µM | > 30 µM | – | > 10 µM | 28 µM | > 30 µM |
| CCC(=O)O[C@]1(C(=O)CCl)[C@@H](C)C[C@H]2[C@@H]3CCC4=CC(=O)C=C[C@]4(C)[C@@]3(F)[C@@H](O)C[C@@]21C [CLOBETASOL PROPIONATE] | – | – | > 30 µM | – | > 30 µM | > 30 µM | > 30 µM | > 30 µM | > 30 µM | > 30 µM |
| CCCCc1oc2ccc(NS(C)(=O)=O)cc2c1C(=O)c1ccc(OCCCN(CCCC)CCCC)cc1 [DRONEDARONE] | 1.54 µM | – | – | – | – | – | – | – | – | – |
| CNC[C@H](O)c1ccc(O)c(O)c1 [EPINEPHRINE] | – | – | > 30 µM | – | > 30 µM | > 30 µM | > 30 µM | – | > 30 µM | – |
| CC(C(=O)O)c1cccc(Oc2ccccc2)c1 (centres undefined) [FENOPROFEN] | > 30 µM | > 30 µM | – | – | – | – | – | – | – | – |
| CC1(C)O[C@@H]2C[C@H]3[C@@H]4C[C@H](F)C5=CC(=O)C=C[C@]5(C)[C@@]4(F)[C@@H](O)C[C@]3(C)[C@]2(C(=O)CO)O1 [FLUOCINOLONE ACETONIDE] | > 30 µM | > 30 µM | – | – | – | – | – | – | – | – |
| O=C(O)P(=O)(O)O [FOSCARNET] | > 30 µM | > 30 µM | – | – | – | – | – | – | – | – |
| C[N+](C)(CCCCCC[N+](C)(C)C1c2ccccc2-c2ccccc21)C1c2ccccc2-c2ccccc21 [HEXAFLUORENIUM] | > 30 µM | > 30 µM | – | – | – | – | – | – | – | – |
| Cc1cc(=O)oc2cc(O)ccc12 [HYMECROMONE] | > 30 µM | 25.4 µM | – | – | – | – | – | – | – | – |
| CCCCCCCN(CC)CCCC(O)c1ccc(NS(C)(=O)=O)cc1 (centres undefined) [IBUTILIDE] | – | – | > 30 µM | > 30 µM | > 30 µM | > 30 µM | > 30 µM | > 30 µM | > 30 µM | – |
| COc1c2occc2c(OC)c2c(=O)cc(C)oc12 [KHELLIN] | > 30 µM | > 30 µM | – | – | – | – | – | – | – | – |
| C[N+]1(C)CCCC(OC(=O)C(O)(c2ccccc2)c2ccccc2)C1 (centres undefined) [MEPENZOLATE] | > 30 µM | > 30 µM | – | – | – | – | – | – | – | – |
| C=N[C@@H](C(=O)N[C@@H]1C(=O)N2[C@@H]1SC(C)(C)[C@@H]2C(=O)O)c1ccccc1 [METAMPICILLIN] | > 30 µM | > 30 µM | – | – | – | – | – | – | – | – |

| SMILES | AC50 [1] | AC50 [2] | AC50 [3] | AC50 [4] | AC50 [5] | AC50 [6] | AC50 [7] | AC50 [8] | AC50 [9] | AC50 [10] |
| --- | --- | --- | --- | --- | --- | --- | --- | --- | --- | --- |
| O=C(NNCS(=O)(=O)O)c1ccncc1 [METHANIAZIDE] | > 30 µM | > 30 µM | – | – | – | – | – | – | – | – |
| Cc1cc(=O)[nH]c(=S)[nH]1 [METHYLTHIOURACIL] | > 30 µM | > 30 µM | – | – | – | – | – | – | – | – |
| CC[C@@H](CO)NC(=O)[C@@H]1C=C2c3cccc4c3c(cn4C)C[C@H]2N(C)C1 [METHYSERGIDE] | – | – | > 30 µM | > 30 µM | > 30 µM | > 30 µM | – | 11 µM | > 30 µM | > 30 µM |
| CNC(=C[N+](=O)[O-])NCCSCc1csc(CN(C)C)n1 [NIZATIDINE] | – | – | – | – | > 10 µM | > 30 µM | > 10 µM | > 10 µM | > 30 µM | – |
| CN1Cc2c(N)cccc2C(c2ccccc2)C1 (centres undefined) [NOMIFENSINE] | – | – | > 30 µM | > 30 µM | > 30 µM | > 30 µM | – | > 30 µM | > 30 µM | > 30 µM |
| COc1ccc2[nH]c([S+]([O-])Cc3ncc(C)c(OC)c3C)nc2c1 (centres undefined) [OMEPRAZOLE] | 2.88 µM | > 30 µM | – | – | – | – | – | – | – | – |
| O=C(O)CN(CCN(CC(=O)O)CC(=O)O)CCN(CC(=O)O)CC(=O)O [PENTETIC ACID] | > 30 µM | > 30 µM | – | – | – | – | – | – | – | – |
| CC(CN1c2ccccc2Sc2ccccc21)N(C)C (centres undefined) [PROMETHAZINE] | – | – | > 30 µM | > 10 µM | > 30 µM | > 30 µM | 1.4 µM | – | > 30 µM | > 30 µM |
| CCCc1cc(=O)[nH]c(=S)[nH]1 [PROPYLTHIOURACIL] | – | – | – | > 10 µM | > 10 µM | > 30 µM | > 10 µM | > 10 µM | > 30 µM | – |
| Cn1cc(C(=O)[C@@H]2CCc3nc[nH]c3C2)c2ccccc21 [RAMOSETRON] | – | – | > 30 µM | > 30 µM | > 30 µM | > 30 µM | 20 µM | 4.3 µM | > 30 µM | – |
| CN(CCOc1ccc(CC2SC(=O)NC2=O)cc1)c1ccccn1 (centres undefined) [ROSIGLITAZONE] | – | – | > 30 µM | > 30 µM | > 30 µM | > 30 µM | 14 µM | 8.6 µM | 29 µM | – |
| C[Se]CC[C@H](N)C(=O)O [SELENOMETHIONINE] | > 30 µM | > 30 µM | – | – | – | – | – | – | – | – |
| C[N+](C)(C)CCOC(=O)CCC(=O)OCC[N+](C)(C)C [SUXAMETHONIUM] | > 30 µM | > 30 µM | – | – | – | – | – | – | – | – |
| Cc1ccccc1C(=O)Nc1ccc(C(=O)N2CCCC(O)c3cc(Cl)ccc32)c(C)c1 (centres undefined) [TOLVAPTAN] | 11 µM | > 30 µM | – | – | – | – | – | – | – | – |
| C[C@]12C=CC(=O)C=C1CC[C@H]1[C@@H]3C[C@@H](O)[C@](O)(C(=O)CO)[C@@]3(C)C[C@H](O)[C@@]12F [TRIAMCINOLONE] | > 30 µM | > 30 µM | – | – | – | – | – | – | – | – |
| CC(C)C[C@H](NC(=O)[C@@H](O)[C@H](N)Cc1ccccc1)C(=O)O [UBENIMEX] | – | – | – | – | > 30 µM | > 30 µM | > 30 µM | > 30 µM | > 30 µM | > 30 µM |
| CCC1=C[C@@H]2CN(C1)Cc1c([nH]c3ccccc13)[C@@](C(=O)OC)(c1cc3c(cc1OC)N(C)[C@H]1[C@@](O)(C(=O)OC)[C@H](OC(C)=O)[C@]4(CC)C=CCN5CC[C@]31[C@@H]54)C2 [VINORELBINE] | > 30 µM | > 30 µM | – | – | – | – | – | – | – | – |
| COc1cc(C(=O)NS(=O)(=O)c2ccccc2C)ccc1Cc1cn(C)c2ccc(NC(=O)OC3CCCC3)cc12 [ZAFIRLUKAST] | – | – | – | > 10 µM | > 10 µM | 14 µM | – | – | 5.4 µM | – |
